For 14 compounds, EC50 results are on record in patent US8785468B2, “Phenylalanine amide derivatives useful for treating insulin-related diseases and conditions” (Amgen Inc., priority 2009, dated 2014).

Counter-ions that a name gives are not always drawn.

This experiment concerns the target T1, human receptor found in pancreatic islet cells (Homo sapiens, UniProt Q7Z601).
T1 sequence (Q7Z601 1-462): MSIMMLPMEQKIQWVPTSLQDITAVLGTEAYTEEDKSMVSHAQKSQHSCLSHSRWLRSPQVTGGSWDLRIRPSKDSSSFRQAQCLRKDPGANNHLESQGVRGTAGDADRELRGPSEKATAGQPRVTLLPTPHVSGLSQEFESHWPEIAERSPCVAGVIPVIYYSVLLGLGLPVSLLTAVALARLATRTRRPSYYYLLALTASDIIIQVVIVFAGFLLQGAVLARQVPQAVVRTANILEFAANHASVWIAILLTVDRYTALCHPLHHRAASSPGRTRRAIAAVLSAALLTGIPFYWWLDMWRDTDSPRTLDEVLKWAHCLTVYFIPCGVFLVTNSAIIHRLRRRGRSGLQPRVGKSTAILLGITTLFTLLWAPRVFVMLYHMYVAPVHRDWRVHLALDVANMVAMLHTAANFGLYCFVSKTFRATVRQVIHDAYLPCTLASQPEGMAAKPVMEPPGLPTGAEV
Description: Activation of intracellular IP3 signaling in transfected cells (Activation Assay). It is filed as cell-based. Particulars: calculated from IP3 concentration measurements in cells transfected with the human receptor. As for the experimental part: Table 12 provides exemplary compounds that were prepared and assessed, following protocols known to those of skilled in the art, for activation of intracellular inositol trisphosphate (IP3) signaling pathways that lead to elevation of intracellular calcium concentration. EC50 values provided in Table 12 were calculated from IP3 concentration measurements in cells transfected with a human receptor found in pancreatic islet cells, inter alia.
Turning to `CNc1cc(-c2cc(NC(=O)[C@H](Cc3ccc(F)cc3)NCc3cscn3)[nH]n2)ccn1` [Example 18.1, (2S)-3-(4-Fluorophenyl)-N-(3-(2-(methylamino)pyridin-4-yl)-1H-pyrazol-5-yl)-2-(thiazol-4-ylmethylamino)propanamide], the EC50 is below 50 nM. As for `CNc1cc(-c2cc(NC(=O)[C@H](Cc3ccc(F)cc3)NCc3c[nH]nn3)[nH]n2)ccn1` [Example 18.2, (2S)-2-((1H-1,2,3-triazol-4-yl)methylamino)-3-(4-fluorophenyl)-N-(3-(2-(methylamino)pyridin-4-yl)-1H-pyrazol-5-yl)propanamide], the figure is below 50 nM. The figure for `COc1ncc(-c2ccn(C)n2)cc1NC(=O)[C@H](Cc1ccccc1)NC1(c2ccccn2)CC1` [Example 19.1] is 100 to 1000 nM; for `COc1ncc(-c2ccn(C)n2)cc1NC(=O)[C@H](Cc1ccccc1)NC1(c2cscn2)CC1` [Example 19.2] it is 100 to 1000 nM. As for `CCn1nc(-c2ccncc2)cc1NC(=O)[C@H](Cc1ccc(F)cc1)NCc1cscn1` [Example 20.1, (S)—N-(1-ethyl-3-(pyridine-4-yl)-1H-pyrazol-5-yl)-3-(4-fluorophenyl)-2-(thiazol-4-ylmethlamino)propanamide], the figure is below 50 nM. For `CCn1nc(-c2ccncc2)cc1NC(=O)[C@H](Cc1ccccc1)NCCCc1ccccn1` [Example 20.2], the EC50 is below 50 nM. Regarding `CCn1nc(-c2ccncc2)cc1NC(=O)[C@H](Cc1ccccc1)N[C@H](C)C(=O)O` [Example 20.3, (R)-2-((S)-1-(1-Ethyl-3-(pyridin-4-yl)-1H-pyrazol-5-ylamino)-1-oxo-3-phenylpropan-2-ylamino)propanoic acid], the EC50 was 1000 to 10000 nM. `Cc1cc(-c2cc(NC(=O)[C@H](Cc3ccc(F)cc3)NCc3cscn3)[nH]n2)ccn1` [Example 21.1, (2S)-3-(4-Fluorophenyl)-N-(3-(2-methylpyridin-4-yl)-1H-pyrazol-5-yl)-2-(thiazol-4-ylmethylamino)propanamide dihydrochloride]: the EC50 was below 50 nM. As for `Cc1cc(-c2cc(NC(=O)[C@H](Cc3ccc(F)cc3)NCC(=O)O)[nH]n2)ccn1` [Example 21.2, 2-((S)-3-(4-Fluorophenyl)-1-(3-(2-methylpyridin-4-yl)-1H-pyrazol-5-ylamino)-1-oxopropan-2-ylamino)acetic acid dihydrochloride], the figure is below 50 nM. As for `Cc1cc(-c2nc(C)c(NC(=O)[C@H](Cc3ccc(F)cc3)NCc3cscn3)s2)ccn1` [Example 22, (2S)-3-(4-Fluorophenyl)-N-(4-methyl-2-(2-methylpyridin-4-yl)thiazol-5-yl)-2-(thiazol-4-ylmethylamino)propanamide], the figure is 50 to 100 nM. The figure for `CNc1cc(-c2cc(NC(=O)[C@H](Cc3ccccc3)NCc3ccc(F)cn3)n(C)n2)ccn1` [Example 23.1, (2S)-2-((5-Fluoropyridin-2-yl)methylamino)-N-(1-methyl-3-(2-(methylamino)pyridin-4-yl)-1H-pyrazol-5-yl)-3-phenylpropanamide] is below 50 nM.

As for `CNc1cc(-c2cc(NC(=O)[C@H](Cc3ccc(F)cc3)NCc3cc[nH]n3)n(C)n2)ccn1` [Example 23.2, (2S)-2-((1H-Pyrazol-3-yl)methylamino)-3-(4-fluorophenyl)-N-(1-methyl-3-(2-(methylamino)pyridin-4-yl)-1H-pyrazol-5-yl)propanamide], the EC50 was below 50 nM. The figure for `CCOCCN[C@@H](Cc1ccc(F)cc1)C(=O)Nc1cc(-c2ccnc(NC)c2)nn1C` [Example 23.3, (2S)-2-(2-Ethoxyethylamino)-3-(4-fluorophenyl)-N-(1-methyl-3-(2-(methylamino)pyridin-4-yl)-1H-pyrazol-5-yl)propanamide] is 100 to 1000 nM; for `CNc1cc(-c2cc(NC(=O)[C@H](Cc3ccc(F)cc3)NCc3ccn(C)n3)n(C)n2)ccn1` [Example 23.4, (2S)-3-(4-Fluorophenyl)-2-((1-methyl-1H-pyrazol-3-yl)methylamino)-N-(1-methyl-3-(2-(methylamino)pyridin-4-yl)-1H-pyrazol-5-yl)propanamide] it is 50 to 100 nM.
